What all share (assay): Test B postemergence
Assay type in all cases: in vivo
Common to all, as to settings: scale 0 to 100

The subject of assay [1] is canarygrass (Phalaris minor). Put shortly: (§1)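 Greenhouse postemergence test on potted plants 2 to 18 cm high. Effects were scored visually against controls 13 to 15 days after application, with 0 meaning no effect and 100 complete control.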
In assay [2] the test system is goosegrass (Eleusine indica). The method in brief:
as §1

Assay [3] relates to large crabgrass (Digitaria sanguinalis). The method in brief:
as §1

The test system of assay [4] is wheat (Triticum aestivum). The method in brief: as §1
In assay [5] the test system is woolly cupgrass (Eriochloa villosa). The method in brief:
as §1

The structures appear in SMILES notation.

Consider `COCCn1c(-c2cc(F)cc(F)c2)c(Cl)nc(C(=O)C2=C(O)CCCC2=O)c1=O` [Compound 6, 5-chloro-6-(3,5-difluorophenyl)-3-[(2-hydroxy-6-oxo-1-cyclohexen-1-yl)carbonyl]-1-(2-methoxyethyl)-2(1H)-pyrazinone], for which the “Plant response rating, Canarygrass” value in assay [1] (31 g ai/ha) worked out at 55; in assay [1] (62 g ai/ha) it was 55; in assay [1] (125 g ai/ha), 70; in assay [1] (250 g ai/ha), 90. The “Plant response rating, Goosegrass” value in assay [2] (31 g ai/ha) is recorded as 75; in assay [2] (62 g ai/ha), 80; in assay [2] (125 g ai/ha) it was 95; in assay [2] (250 g ai/ha), 98. Moreover, the “Plant response rating, Crabgrass, Large” value in assay [3] (31 g ai/ha) turned out to be 75; in assay [3] (62 g ai/ha), 85; in assay [3] (125 g ai/ha), 95; in assay [3] (250 g ai/ha), 98. Besides, the “Plant response rating, Wheat” value in assay [4] (31 g ai/ha) was 45; in assay [4] (62 g ai/ha) it was 45; in assay [4] (125 g ai/ha) it was 50; in assay [4] (250 g ai/ha), 60. In addition, the “Plant response rating, Cupgrass, Woolly” value amounted to 90 in assay [5] (31 g ai/ha), 100 in assay [5] (62 g ai/ha), 100 in assay [5] (125 g ai/ha) and 100 in assay [5] (250 g ai/ha).
On to `COCCn1c(-c2cccc(F)c2)c(Cl)nc(C(=O)C2=C(O)CCCC2=O)c1=O` [Compound 4, 5-chloro-6-(3-fluorophenyl)-3-[(2-hydroxy-6-oxo-1-cyclohexen-1-yl)carbonyl]-1-(2-methoxyethyl)-2(1H)pyrazinone], for which the “Plant response rating, Canarygrass” value was 25 in assay [1] (31 g ai/ha), 40 in assay [1] (62 g ai/ha), 50 in assay [1] (125 g ai/ha) and 60 in assay [1] (250 g ai/ha). The “Plant response rating, Goosegrass” value in assay [2] (31 g ai/ha) is recorded as 5; in assay [2] (62 g ai/ha) it was 45; in assay [2] (125 g ai/ha), 50; in assay [2] (250 g ai/ha), 65. Besides, the “Plant response rating, Crabgrass, Large” value in assay [3] (31 g ai/ha) is 70; in assay [3] (62 g ai/ha) it was 75; in assay [3] (125 g ai/ha) it was 80; in assay [3] (250 g ai/ha), 85. The “Plant response rating, Wheat” value in assay [4] (31 g ai/ha) is given as 5; in assay [4] (62 g ai/ha) it was 20; in assay [4] (125 g ai/ha), 30; in assay [4] (250 g ai/ha), 35. The “Plant response rating, Cupgrass, Woolly” value amounted to 50 in assay [5] (31 g ai/ha), 70 in assay [5] (62 g ai/ha), 75 in assay [5] (125 g ai/ha) and 85 in assay [5] (250 g ai/ha).

These data come from patent publication US20140024527A1, “HERBICIDAL PYRAZINONES” (E I DU DE NEMOURS AND COMPANY, priority 2011, published 2014).
